According to ChEMBL document CHEMBL1154203, “N-[(3S)-Pyrrolidin-3-yl]benzamides as novel dual serotonin and noradrenaline reuptake inhibitors: impact of small structural modifications on P-gp recognition and CNS penetration” (Bioorg Med Chem Lett, 2009):
One block for each compound: values may come before it.

Legend:
[1] = target: Voltage-gated inwardly rectifying potassium channel KCNH2 (Homo sapiens, UniProt Q12809)
[2] = in vitro; settings: human, liver microsomes
Description: Intrinsic clearance in human liver microsomes

[3] = target: Sodium-dependent serotonin transporter (Homo sapiens, UniProt P31645); test: biochemical
Sodium-dependent serotonin transporter, sequence (P31645 whole entry): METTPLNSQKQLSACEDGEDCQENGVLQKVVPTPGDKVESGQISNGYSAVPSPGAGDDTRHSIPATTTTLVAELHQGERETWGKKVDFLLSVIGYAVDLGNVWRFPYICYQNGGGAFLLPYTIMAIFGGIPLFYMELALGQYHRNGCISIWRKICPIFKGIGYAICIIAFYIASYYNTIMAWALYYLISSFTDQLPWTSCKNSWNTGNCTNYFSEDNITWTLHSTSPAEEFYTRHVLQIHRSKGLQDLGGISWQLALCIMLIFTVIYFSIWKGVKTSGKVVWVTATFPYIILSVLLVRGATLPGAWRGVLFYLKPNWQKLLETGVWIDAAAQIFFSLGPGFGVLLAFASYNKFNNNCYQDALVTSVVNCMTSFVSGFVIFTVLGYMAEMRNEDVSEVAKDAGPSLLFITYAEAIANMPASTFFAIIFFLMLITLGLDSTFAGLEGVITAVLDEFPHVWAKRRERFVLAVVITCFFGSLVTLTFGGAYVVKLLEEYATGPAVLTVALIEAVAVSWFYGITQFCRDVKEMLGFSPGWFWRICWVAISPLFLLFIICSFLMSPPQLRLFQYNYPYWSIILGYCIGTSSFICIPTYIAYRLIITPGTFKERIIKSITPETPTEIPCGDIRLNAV
Description: Displacement of [3H]5HT from human 5HT transporter expressed in HEK293 cells by scintillation counting

[4] = target: Sodium-dependent noradrenaline transporter (Homo sapiens, UniProt P23975); test: biochemical
Sodium-dependent noradrenaline transporter, sequence (P23975 whole entry): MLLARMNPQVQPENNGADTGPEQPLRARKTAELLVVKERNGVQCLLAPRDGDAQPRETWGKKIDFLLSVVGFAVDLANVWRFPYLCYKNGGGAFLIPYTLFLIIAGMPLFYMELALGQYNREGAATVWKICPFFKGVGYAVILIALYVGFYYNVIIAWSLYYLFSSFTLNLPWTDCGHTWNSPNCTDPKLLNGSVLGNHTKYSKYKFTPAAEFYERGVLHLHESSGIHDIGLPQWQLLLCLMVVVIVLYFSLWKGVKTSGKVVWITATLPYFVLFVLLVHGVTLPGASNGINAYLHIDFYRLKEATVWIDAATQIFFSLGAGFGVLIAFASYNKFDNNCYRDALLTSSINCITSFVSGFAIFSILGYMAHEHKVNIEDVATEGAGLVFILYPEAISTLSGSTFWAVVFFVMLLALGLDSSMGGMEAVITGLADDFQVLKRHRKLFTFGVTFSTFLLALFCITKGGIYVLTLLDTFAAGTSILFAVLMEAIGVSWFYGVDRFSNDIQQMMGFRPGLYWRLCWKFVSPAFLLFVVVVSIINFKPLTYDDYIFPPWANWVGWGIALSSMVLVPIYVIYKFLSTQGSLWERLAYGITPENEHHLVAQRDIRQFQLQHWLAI
Description: Displacement of [3H]noradrenaline from human NET receptor expressed in HEK293 cells by scintillation counting

[5] = target: Sodium-dependent dopamine transporter (Homo sapiens, UniProt Q01959); test: biochemical
Sodium-dependent dopamine transporter, sequence (Q01959 whole entry): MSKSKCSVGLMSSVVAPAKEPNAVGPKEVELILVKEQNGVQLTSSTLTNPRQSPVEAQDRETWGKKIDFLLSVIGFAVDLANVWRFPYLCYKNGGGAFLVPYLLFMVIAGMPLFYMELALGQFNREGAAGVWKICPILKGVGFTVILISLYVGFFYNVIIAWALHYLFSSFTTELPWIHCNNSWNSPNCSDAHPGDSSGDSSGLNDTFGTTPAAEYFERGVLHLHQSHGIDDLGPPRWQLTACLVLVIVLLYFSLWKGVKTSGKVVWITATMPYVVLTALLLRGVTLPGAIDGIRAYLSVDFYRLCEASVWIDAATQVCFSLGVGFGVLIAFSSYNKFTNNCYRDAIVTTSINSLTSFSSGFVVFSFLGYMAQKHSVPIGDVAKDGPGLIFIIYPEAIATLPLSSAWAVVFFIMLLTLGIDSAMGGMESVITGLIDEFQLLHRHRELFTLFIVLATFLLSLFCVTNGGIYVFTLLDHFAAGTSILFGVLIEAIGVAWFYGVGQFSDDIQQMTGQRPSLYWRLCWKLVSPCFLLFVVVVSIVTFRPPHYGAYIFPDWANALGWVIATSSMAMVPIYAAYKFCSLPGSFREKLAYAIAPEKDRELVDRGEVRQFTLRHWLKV
Description: Displacement of [3H]dopamine from human DAT receptor expressed in HEK293 cells by scintillation counting

[6] = system: Plasma; test: fCmax in Beagle dog plasma; type: ADME, organism-based, Canis lupus familiaris; settings: in vivo
[7] = organism: Canis familiaris; test: Increase in peak urethral pressure in Beagle dog; type: functional, Canis lupus familiaris, Urethra
[8] = system: MDR1; test: Permeability from apical to basolateral side of MDCK cells over expressing MDR1; type: ADME, cell-based, Canis lupus familiaris; settings: dog
[9] = system: MDR1; test: Permeability from basolateral to apical side of MDCK cells over expressing MDR1; type: ADME, cell-based, Canis lupus familiaris; settings: dog
[10] = Binding affinity to sodium channel
[11] = Binding affinity to sigma opioid receptor
[12] = target: Kappa-type opioid receptor (Homo sapiens, UniProt P41145); test: Binding affinity to kappa opioid receptor
Kappa-type opioid receptor, sequence (P41145 whole entry): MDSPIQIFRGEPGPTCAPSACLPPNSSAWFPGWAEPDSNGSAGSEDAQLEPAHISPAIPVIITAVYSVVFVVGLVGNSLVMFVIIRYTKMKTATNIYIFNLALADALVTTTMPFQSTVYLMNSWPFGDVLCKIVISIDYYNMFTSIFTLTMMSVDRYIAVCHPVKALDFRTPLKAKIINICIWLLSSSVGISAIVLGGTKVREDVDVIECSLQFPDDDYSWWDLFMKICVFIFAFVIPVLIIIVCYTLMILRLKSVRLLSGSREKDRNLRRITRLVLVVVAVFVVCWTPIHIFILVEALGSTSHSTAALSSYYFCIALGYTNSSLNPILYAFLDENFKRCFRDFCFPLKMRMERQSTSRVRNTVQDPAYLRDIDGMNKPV

[13] = Lipophilicity, log D at pH 7.4; type: physicochemical; settings: buffer
[14] = Dissociation constant, pKa of the compound; type: physicochemical
[15] = Intrinsic clearance in human hepatocytes measured per million cells; type: ADME, cell-based, Liver, Hepatocyte
[16] = target: Cytochrome P450 2D6 (Homo sapiens, UniProt P10635); test: Inhibition of CYP2D6; type: ADME
[17] = target: T1, Cytochrome P450 1A2 (Homo sapiens, UniProt P05177); test: Inhibition of CYP1A2; type: ADME
T1 sequence (P05177 whole entry): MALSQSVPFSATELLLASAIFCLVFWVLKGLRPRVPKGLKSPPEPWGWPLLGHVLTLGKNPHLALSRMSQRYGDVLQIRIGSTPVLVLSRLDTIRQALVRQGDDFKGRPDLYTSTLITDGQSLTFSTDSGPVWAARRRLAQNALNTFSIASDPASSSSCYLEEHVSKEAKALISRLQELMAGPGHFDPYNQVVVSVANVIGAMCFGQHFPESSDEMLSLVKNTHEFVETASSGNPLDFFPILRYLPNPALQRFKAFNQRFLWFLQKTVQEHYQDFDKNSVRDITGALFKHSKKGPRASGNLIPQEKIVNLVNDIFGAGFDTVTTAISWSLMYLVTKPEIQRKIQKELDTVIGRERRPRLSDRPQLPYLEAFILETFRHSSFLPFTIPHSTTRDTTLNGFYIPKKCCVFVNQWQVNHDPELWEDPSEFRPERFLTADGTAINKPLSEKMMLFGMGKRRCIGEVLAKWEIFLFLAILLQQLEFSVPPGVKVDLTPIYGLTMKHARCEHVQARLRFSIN

[18] = target: Cytochrome P450 2C9 (Homo sapiens, UniProt P11712); test: Inhibition of CYP2C9; type: ADME
Cytochrome P450 2C9, sequence (P11712 whole entry): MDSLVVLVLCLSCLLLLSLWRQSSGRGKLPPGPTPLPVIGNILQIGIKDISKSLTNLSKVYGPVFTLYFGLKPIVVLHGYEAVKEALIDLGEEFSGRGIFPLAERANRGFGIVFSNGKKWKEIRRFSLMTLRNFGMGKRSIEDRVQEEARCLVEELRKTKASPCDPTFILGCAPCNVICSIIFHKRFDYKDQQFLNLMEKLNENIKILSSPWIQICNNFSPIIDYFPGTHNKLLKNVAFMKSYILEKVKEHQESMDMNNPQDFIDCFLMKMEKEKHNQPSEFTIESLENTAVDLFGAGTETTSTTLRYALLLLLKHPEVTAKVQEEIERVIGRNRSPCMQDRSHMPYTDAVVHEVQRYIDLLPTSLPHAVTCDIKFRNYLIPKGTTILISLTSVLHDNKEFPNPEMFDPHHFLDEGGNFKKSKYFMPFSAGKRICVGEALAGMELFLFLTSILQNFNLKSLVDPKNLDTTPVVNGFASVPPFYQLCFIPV

[19] = target: Cytochrome P450 2C19 (Homo sapiens, UniProt P33261); test: Inhibition of CYP2C19; type: ADME
Cytochrome P450 2C19, sequence (P33261 whole entry): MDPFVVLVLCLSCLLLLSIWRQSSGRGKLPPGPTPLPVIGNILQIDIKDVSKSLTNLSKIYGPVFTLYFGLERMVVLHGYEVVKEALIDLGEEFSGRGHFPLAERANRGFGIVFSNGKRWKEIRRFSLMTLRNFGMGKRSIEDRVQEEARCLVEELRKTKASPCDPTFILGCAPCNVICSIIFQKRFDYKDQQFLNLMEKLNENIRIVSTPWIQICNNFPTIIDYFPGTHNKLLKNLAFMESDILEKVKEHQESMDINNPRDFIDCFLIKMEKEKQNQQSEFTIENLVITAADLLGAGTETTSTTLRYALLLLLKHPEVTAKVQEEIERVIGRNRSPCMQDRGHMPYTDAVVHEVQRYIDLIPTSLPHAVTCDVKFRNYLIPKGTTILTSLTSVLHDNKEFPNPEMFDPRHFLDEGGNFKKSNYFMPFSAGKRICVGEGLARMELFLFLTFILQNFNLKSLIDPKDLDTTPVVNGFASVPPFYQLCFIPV

[20] = target: T2, Cytochrome P450 3A4 (Homo sapiens, UniProt P08684); test: Inhibition of CYP3A4 using felodipine as a substrate; type: ADME
T2 sequence (P08684 whole entry): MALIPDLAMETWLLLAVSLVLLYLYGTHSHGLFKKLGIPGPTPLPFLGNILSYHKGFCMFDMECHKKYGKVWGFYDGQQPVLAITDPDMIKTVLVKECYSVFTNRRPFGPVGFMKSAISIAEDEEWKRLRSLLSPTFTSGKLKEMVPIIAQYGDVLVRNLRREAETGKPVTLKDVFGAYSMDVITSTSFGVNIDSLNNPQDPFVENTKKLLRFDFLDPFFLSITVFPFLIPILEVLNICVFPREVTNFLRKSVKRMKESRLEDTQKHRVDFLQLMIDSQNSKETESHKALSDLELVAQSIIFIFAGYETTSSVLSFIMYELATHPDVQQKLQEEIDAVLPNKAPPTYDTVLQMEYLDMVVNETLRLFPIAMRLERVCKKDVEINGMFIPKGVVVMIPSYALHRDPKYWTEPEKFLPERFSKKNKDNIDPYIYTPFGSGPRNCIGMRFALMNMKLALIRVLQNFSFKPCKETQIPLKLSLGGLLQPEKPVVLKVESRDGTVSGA

[21] = target: T2, Cytochrome P450 3A4; test: Inhibition of CYP3A4 using midazolam as a substrate; type: ADME
[22] = target: T2, Cytochrome P450 3A4; test: Inhibition of CYP3A4 using testosterone as a substrate; type: ADME
[23] = Apparent permeability from apical to basolateral side of human Caco-2 cells at 10 uM; type: ADME, cell-based
[24] = Apparent permeability from basolateral to apical side of human Caco-2 cells at 10 uM; type: ADME, cell-based
[25] = organism: Canis familiaris; test: Toxicity in Beagle dog after 14 days; type: organism-based, Canis lupus familiaris; settings: in vivo, 336 h
[26] = organism: Rattus norvegicus; test: Toxicity in rat after 14 days; type: organism-based; settings: in vivo, 336 h
[27] = system: Rattus norvegicus; test: Toxicity in rat assessed as effect on locomotor activity at 15 mg/kg, po after 14 days; type: organism-based; set-up: dose 15 mg/kg, route oral; settings: in vivo, 336 h
[28] = system: MDR1; test: in vitro; settings: dog, MDCK-MDR1
Description: Efflux ratio of permeability from apical to basolateral over basolateral to apical side in MDCK cells over expressing MDR1

[29] = Ratio of drug level from CSF to plasma in Beagle dog; type: ADME, Canis lupus familiaris

Voltage-gated inwardly rectifying potassium channel KCNH2, sequence (Q12809 whole entry): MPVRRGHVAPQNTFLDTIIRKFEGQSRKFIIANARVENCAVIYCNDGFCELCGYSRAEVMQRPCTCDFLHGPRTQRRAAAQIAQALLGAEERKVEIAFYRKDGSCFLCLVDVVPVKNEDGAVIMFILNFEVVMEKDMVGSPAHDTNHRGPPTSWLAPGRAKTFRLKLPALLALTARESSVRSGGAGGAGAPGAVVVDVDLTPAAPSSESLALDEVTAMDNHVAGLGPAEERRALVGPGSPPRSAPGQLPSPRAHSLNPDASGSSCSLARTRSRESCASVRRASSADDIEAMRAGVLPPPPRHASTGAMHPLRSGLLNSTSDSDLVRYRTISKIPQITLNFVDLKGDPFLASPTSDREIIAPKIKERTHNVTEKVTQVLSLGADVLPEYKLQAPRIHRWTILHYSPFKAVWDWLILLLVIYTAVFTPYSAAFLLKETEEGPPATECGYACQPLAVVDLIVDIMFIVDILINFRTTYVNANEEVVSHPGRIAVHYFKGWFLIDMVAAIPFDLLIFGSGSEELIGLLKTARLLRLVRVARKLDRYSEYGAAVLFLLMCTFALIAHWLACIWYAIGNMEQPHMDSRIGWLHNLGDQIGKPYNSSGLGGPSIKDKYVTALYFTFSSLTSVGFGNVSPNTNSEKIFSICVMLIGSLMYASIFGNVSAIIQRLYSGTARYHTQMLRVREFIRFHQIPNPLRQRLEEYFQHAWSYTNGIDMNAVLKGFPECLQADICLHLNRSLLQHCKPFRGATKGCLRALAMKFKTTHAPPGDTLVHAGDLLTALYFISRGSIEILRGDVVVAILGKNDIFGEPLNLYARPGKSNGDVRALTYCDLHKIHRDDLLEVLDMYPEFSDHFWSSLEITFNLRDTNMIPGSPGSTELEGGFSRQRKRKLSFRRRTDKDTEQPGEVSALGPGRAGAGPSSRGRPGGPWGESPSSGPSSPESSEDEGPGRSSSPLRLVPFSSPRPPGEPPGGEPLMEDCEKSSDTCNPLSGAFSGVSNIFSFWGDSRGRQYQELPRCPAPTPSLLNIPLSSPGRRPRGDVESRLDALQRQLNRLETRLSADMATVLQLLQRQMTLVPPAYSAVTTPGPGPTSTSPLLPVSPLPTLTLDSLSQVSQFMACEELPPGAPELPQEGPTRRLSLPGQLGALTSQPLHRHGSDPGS

SMILES: O=C(c1cccc(Cl)c1Cl)N(c1ccccc1)[C@H]1CCNC1
IC50 [1]: 7920 nM
microsomal CLint [2]: < 25 µL/min/mg
Ki [3]: 3 nM
Ki [4]: 11 nM
Ki [5]: 501 nM

SMILES: CC(C)CN(C(=O)c1cccc(C(F)(F)F)c1Cl)[C@H]1CCNC1
Ki [3]: 11 nM
Ki [4]: 103 nM
Ki [5]: 2070 nM

SMILES: O=C(c1cccc(Cl)c1Cl)N(CCC1CC1)[C@H]1CCNC1
IC50 [1]: 7140 nM
microsomal CLint [2]: 26 µL/min/mg
Ki [3]: 15 nM
Ki [4]: 24 nM
Ki [5]: 404 nM

SMILES: CC(C)CN(C(=O)c1cccc(F)c1Cl)[C@H]1CCNC1
microsomal CLint [2]: 20 µL/min/mg
Ki [3]: 15 nM
Ki [4]: 67 nM
Ki [5]: 2370 nM

SMILES: CC(C)CN(C(=O)c1cc(Cl)ccc1Cl)[C@H]1CCNC1
IC50 [1]: 19800 nM
microsomal CLint [2]: 29 µL/min/mg
Ki [3]: 54 nM
Ki [4]: 198 nM
Ki [5]: 2430 nM

SMILES: CC(C)CN(C(=O)c1cccc(Cl)c1Cl)[C@@H]1CCNC1
Ki [3]: 13 nM
Ki [4]: 169 nM
Ki [5]: 3090 nM

SMILES: CC(C)CN(C(=O)c1cccc(Cl)c1Cl)[C@H]1CCNC1
fCmax [6]: 5 nM
Activity [7]: 35%
Papp A→B [8]: 16 ×10⁻⁶ cm/s
Papp B→A [9]: 43 ×10⁻⁶ cm/s
IC50 [10]: 3600 nM
IC50 [11]: 5100 nM
IC50 [12]: 5800 nM
logD [13]: 0.6
pKa [14]: 10
hepatocyte CLint [15]: 3 µL/min/1e6 cells
IC50 [16]: > 30000 nM
IC50 [17]: > 30000 nM
IC50 [18]: > 30000 nM
IC50 [19]: > 30000 nM
IC50 [20]: > 30000 nM
IC50 [21]: > 30000 nM
IC50 [22]: > 30000 nM
Papp A→B at 10 µM [23]: 12 ×10⁻⁶ cm/s
Papp B→A at 10 µM [24]: 26 ×10⁻⁶ cm/s
Activity [25]: Non-toxic
Activity [26]: Non-toxic
Activity [27]: Non-toxic
IC50 [1]: 20000 nM
microsomal CLint [2]: 11 µL/min/mg
efflux ratio [28]: 2.7
Ki [3]: 6 nM
Ki [4]: 21 nM
Ki [5]: 544 nM

SMILES: CC(C)CN(C(=O)c1cccc(Cl)c1F)[C@H]1CCNC1
IC50 [1]: > 10000 nM
microsomal CLint [2]: 26 µL/min/mg
Ki [3]: 10 nM
Ki [4]: 139 nM
Ki [5]: 2560 nM

SMILES: Cc1c(F)cccc1C(=O)N(CC(C)C)[C@H]1CCNC1
microsomal CLint [2]: 21 µL/min/mg
Ki [3]: 13 nM
Ki [4]: 69 nM
Ki [5]: 1610 nM

SMILES: CC(C)CN(C(=O)c1ccc(F)cc1Cl)[C@H]1CCNC1
microsomal CLint [2]: 20 µL/min/mg
Ki [3]: 7 nM
Ki [4]: 263 nM
Ki [5]: 2540 nM

SMILES: CC(C)CN(C(=O)c1ccc(Cl)cc1Cl)[C@H]1CCNC1
microsomal CLint [2]: 26 µL/min/mg
Ki [3]: 3 nM
Ki [4]: 37 nM
Ki [5]: 2400 nM

SMILES: O=C(c1cccc(Cl)c1Cl)N(C1CCCC1)[C@H]1CCNC1
Papp A→B [8]: 10 ×10⁻⁶ cm/s
Papp B→A [9]: 64 ×10⁻⁶ cm/s
microsomal CLint [2]: < 7 µL/min/mg
Ki [3]: 6 nM
Ki [4]: 11 nM
Ki [5]: 983 nM

SMILES: CC(C)CN(C(=O)c1cc(Cl)cc(Cl)c1)[C@H]1CCNC1
IC50 [1]: > 10000 nM
Ki [3]: 6 nM
Ki [4]: 43 nM
Ki [5]: 3070 nM

The remaining compounds from weak to strong by Ki [3], led by results:

microsomal CLint [2]: < 7 µL/min/mg
Ki [3]: 1320 nM
Ki [4]: 65 nM
Ki [5]: 3590 nM
SMILES: CC(C)CN(C(=O)c1ccccc1C(C)C)[C@H]1CCNC1
IC50 [1]: 12900 nM

microsomal CLint [2]: < 8 µL/min/mg
Ki [3]: 39 nM
Ki [4]: 95 nM
Ki [5]: 3730 nM
SMILES: O=C(c1cccc(Cl)c1Cl)N(CC(F)(F)F)[C@H]1CCNC1

microsomal CLint [2]: < 13 µL/min/mg
Ki [3]: 29 nM
Ki [4]: 217 nM
Ki [5]: 1090 nM
SMILES: CCN(C(=O)c1cccc(Cl)c1Cl)[C@H]1CCNC1
IC50 [1]: > 20000 nM

Ki [3]: 25 nM
Ki [4]: 26 nM
SMILES: CC(C)CN(C(=O)c1cccc(F)c1C(F)(F)F)[C@H]1CCNC1
IC50 [1]: > 10000 nM

microsomal CLint [2]: 34 µL/min/mg
Ki [3]: 20 nM
Ki [4]: 37 nM
Ki [5]: 2600 nM
SMILES: CCC(CC)N(C(=O)c1cccc(Cl)c1Cl)[C@H]1CCNC1
IC50 [1]: 7740 nM

microsomal CLint [2]: 23.5 µL/min/mg
Ki [3]: 19 nM
Ki [4]: 135 nM
Ki [5]: 1330 nM
SMILES: CC(C)CN(C(=O)c1cccc(Cl)c1)[C@H]1CCNC1

microsomal CLint [2]: < 7 µL/min/mg
Ki [3]: 16 nM
Ki [4]: 36 nM
Ki [5]: 630 nM
SMILES: CCCN(C(=O)c1cccc(Cl)c1Cl)[C@H]1CCNC1
IC50 [1]: > 18600 nM

Papp A→B [8]: 15 ×10⁻⁶ cm/s
Papp B→A [9]: 64 ×10⁻⁶ cm/s
Kp [29]: 0.1
microsomal CLint [2]: < 7.6 µL/min/mg
efflux ratio [28]: 4.3
Ki [3]: 9 nM
Ki [4]: 52 nM
Ki [5]: 640 nM
SMILES: CC(C)C(=O)N(Cc1cccc(Cl)c1Cl)[C@H]1CCNC1

Papp A→B [8]: 1 ×10⁻⁶ cm/s
Papp B→A [9]: 20 ×10⁻⁶ cm/s
microsomal CLint [2]: 13 µL/min/mg
efflux ratio [28]: 20
Ki [3]: 6 nM
Ki [4]: 10 nM
Ki [5]: 945 nM
SMILES: O=C(c1cccc(Cl)c1Cl)N(C1=CCOC=C1)[C@H]1CCNC1
IC50 [1]: > 40000 nM

Ki [3]: 4 nM
Ki [4]: 13 nM
Ki [5]: 273 nM
SMILES: CC(C)(C)CN(C(=O)c1cccc(Cl)c1Cl)[C@H]1CCNC1

microsomal CLint [2]: 36 µL/min/mg
Ki [3]: 4 nM
Ki [4]: 50 nM
Ki [5]: 430 nM
SMILES: CC(C)CN(C(=O)c1ccc(Cl)c(Cl)c1)[C@H]1CCNC1

microsomal CLint [2]: 26 µL/min/mg
Ki [3]: 3 nM
Ki [4]: 29 nM
Ki [5]: 516 nM
SMILES: Cc1c(Cl)cccc1C(=O)N(CC(C)C)[C@H]1CCNC1
IC50 [1]: 52400 nM
